Marks after values point to notes of the source that are not given here. Where no end group is shown, it is not given here.
Key:
[1] = system: Kidney cancer tumor cells; experiment: MTT proliferation inhibition, kidney cancer cells; type: cell-based, human; parameters: concentration or dose not given beside the values; details: 48 h
Outline: (§1)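 Tumour cells plated at 2×10^4 cells/mL, attached overnight, then exposed to dilutions of mPEG-HM-1 for 48 h at 37 °C, 5% CO2. MTT added 4 h, formazan dissolved in DMSO, absorbance 570/630 nm; growth inhibition = 1 − treated/untreated, three independent repeats, mean±SD.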

[2] = system: Prostate cancer tumor cells; experiment: MTT proliferation inhibition, prostate cancer cells; type: cell-based, human; parameters: concentration or dose not given beside the values; details: 48 h
Outline: as §1

[3] = system: Gastric cancer tumor cells; experiment: MTT proliferation inhibition, gastric cancer cells; type: cell-based, human; parameters: concentration or dose not given beside the values; details: 48 h
Outline: as §1

[4] = system: Breast cancer tumor cells; experiment: MTT proliferation inhibition, breast cancer cells; type: cell-based, human; parameters: concentration or dose not given beside the values; details: 48 h
Outline: as §1

[5] = in vivo
Liver cancer tumor cells = experiment: MTT proliferation inhibition, liver cancer cells; type: cell-based, human; parameters: concentration or dose not given beside the values; details: 48 h
Outline: as §1

[6] = system: Human Umbilical Vein Endothelial Cells (HUVEC); experiment: Transwell migration of HUVEC; type: cell-based; details: 24 h
Outline: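 HUVEC (1×10^5/mL in blank medium) seeded with test solutions into Matrigel-coated transwell inserts, lower chamber holding medium with 5% FBS and 1% ECGS, 24 h at 37 °C. Migrated cells crystal-violet stained and counted in four fields; migration inhibition calculated from test versus blank-control counts, three independent repeats.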

[7] = system: neovascularization in rat model of premature retinopathy; experiment: Fluctuating-oxygen rat model of premature retinopathy (endothelial nuclei count); type: in vivo; details: day 14
Protocol: A fluctuating oxygen-induced animal model was used to randomly divide the newborn rats that were naturally delivered on the same day (within 12 hours) into three groups: the oxygenated model group, the oxygenated treatment group, and the normal control group. The oxygenated model group was subdivided into three subgroup models and along with the oxygenated treatment group was placed in a semi-closed oxygen chamber made of plexiglass. The chamber was connected to medical oxygen, and the oxygen analyzer was adjusted to a concentration of 80%±2%. After 24 hours, Nitrogen gas was introduced into the oxygen chamber, and the oxygen concentration was adjusted to 10%±2% and maintained for 24 h. This process was repeated, so that the oxygen concentration in the oxygen chamber is switched between 80% and 10% every 24 hours, and then transferred to the air for 7 days. The oxygen concentration was monitored 8 times a day, and the ambient temperature in the control cabin was 23° C.±2° C. Bedding change, adding food, changing water and replacing mother rats were performed once a day. The normal control group was placed in an animal facility environment. […] The oxygenated therapeutic components were divided into four subgroups, and on the 7th day of modeling, mPEG-SC-HM-1, mPEG2-NHS-HM-1, mPEG-ALD10k-HM-1, and mPEG-bALD-HM-1 were respectively administered by intravitreal injection. Only normal saline was administered to the oxygen model group and the control group. The administrations continued for 1 week. […] After immersion in wax, serial section at thickness of 4 μm was performed, wherein the sections were kept away from the optic disc. The sections are parallel to the sagittal plane of the cornea to the optic disc. Ten sections per eyeball were randomly selected from each eyeball to be stained with hematoxylin and eosin, and the number of vascular endothelial cells that broke through the retinal inner membrane was counted (only the vascular endothelial nucleus closely related to the inner retinal membrane was counted), and the average numbers of endothelial cells per eyeball per slice was counted.

| Substance | rate of growth inhibition [1] [%] | rate of growth inhibition [2] [%] | rate of growth inhibition [3] [%] | rate of growth inhibition [4] [%] | AUC0-∞ [5] [mg/L/h] | CL [5] [mL/min/kg] | MRT0-∞ [5] [h] | T1/2β (half-life) [5] [h] | rate of growth inhibition (Liver cancer tumor cells) [%] | cell migration number (Mean ± SD) ([6]; 50 μg/mL) | inhibition rate of HUVEC migration ([6]; 50 μg/mL) | cell migration number (Mean ± SD) ([6]; 60 μg/mL) | inhibition rate of HUVEC migration ([6]; 60 μg/mL) | cell migration number (Mean ± SD) ([6]; 90 μg/mL) | inhibition rate of HUVEC migration ([6]; 90 μg/mL) | cell migration number (Mean ± SD) ([6]; 100 μg/mL) | inhibition rate of HUVEC migration ([6]; 100 μg/mL) | other results |
| --- | --- | --- | --- | --- | --- | --- | --- | --- | --- | --- | --- | --- | --- | --- | --- | --- | --- | --- |
| mPEG-bALD5k-Arg-Gly-Ala-Asp-Arg-Ala-Gly-Gly-Gly-Gly-Arg-Gly-Asp ({mPEG‑bALD 5 kDa}-RGADRAGGGGRGD) [mPEG-bALD5k-HM-1] | 57.63 ± 12.09 | 39.27 ± 12.50 | 56.87 ± 14.41 | 50.02 ± 10.47 | 4782.29 ± 11.37 | 0.83 ± 0.162 | 8.46 ± 6.95 | 9.35 ± 0.12 | 55.63 ± 10.27 | 489.28 ± 46.98 | 55.20% | 577.96 ± 58.76 | 47.08%* |  |  |  |  | cell migration number (Mean ± SD) ([6]; 30 μg/mL): 654.96 ± 52.07; inhibition rate of HUVEC migration ([6]; 30 μg/mL): 40.03%*; cell migration number (Mean ± SD) ([6]; 40 μg/mL): 545.96 ± 45.32; inhibition rate of HUVEC migration ([6]; 40 μg/mL): 50.01%; Cell nuclei count ([7]; 25 μg intravitreal for 1 week from day 7, vascular endothelial nuclei breaking through inner retinal membrane per slice): 8.852 ± 2.933 |
| mPEG-bALD10k-Arg-Gly-Ala-Asp-Arg-Ala-Gly-Gly-Gly-Gly-Arg-Gly-Asp ({mPEG‑bALD 10 kDa}-RGADRAGGGGRGD) [mPEG-bALD10k-HM-1] | 70.19 ± 18.11 | 50.02 ± 10.65 | 75.01 ± 16.20 | 68.15 ± 15.87 | 5108.42 ± 9.98 | 0.417 ± 0.175 | 11.97 ± 8.86 | 16.83 ± 0.13 | 68.59 ± 20.19 | 589.97 ± 56.24 | 45.98%* | 483.16 ± 50.26 | 55.76% | 504.35 ± 48.36 | 53.82%** | 568.57 ± 56.90 | 47.94%* | inhibition rate of HUVEC migration ([6]; 70 μg/mL): 60.38%**; Cell nuclei count ([7]; 50 μg intravitreal for 1 week from day 7, vascular endothelial nuclei per slice): 7.627 ± 1.892 |
| mPEG-bALD20k-Arg-Gly-Ala-Asp-Arg-Ala-Gly-Gly-Gly-Gly-Arg-Gly-Asp ({mPEG‑bALD 20 kDa}-RGADRAGGGGRGD) [mPEG-bALD20k-HM-1] | 66.81 ± 19.48 | 46.90 ± 11.54 | 70.21 ± 18.32 | 60.97 ± 16.29 | 5872.56 ± 8.72 | 0.212 ± 0.155 | 18.32 ± 2.99 | 22.94 ± 0.24 | 62.49 ± 16.14 |  |  |  |  |  | 53.82% |  |  | inhibition rate of HUVEC migration ([6]; 80 μg/mL): 55.68%; Cell nuclei count ([7]; 100 μg intravitreal for 1 week from day 7, vascular endothelial nuclei per slice): 7.158 ± 1.724 |
| mPEG-bALD40k-Arg-Gly-Ala-Asp-Arg-Ala-Gly-Gly-Gly-Gly-Arg-Gly-Asp ({mPEG‑bALD 40 kDa}-RGADRAGGGGRGD) [mPEG-bALD40k-HM-1] | 60.06 ± 18.88 | 40.82 ± 11.75 | 68.65 ± 16.93 | 62.45 ± 19.04 | 5065.72 ± 9.56 | 0.11 ± 0.11 | 16.75 ± 3.29 | 43.88 ± 0.20 | 58.72 ± 10.80 |  |  |  |  | 652.01 ± 52.63 | 40.30%* | 523.03 ± 60.52 | 52.11% | cell migration number (Mean ± SD) ([6]; 110 μg/mL): 545.63 ± 46.84; inhibition rate of HUVEC migration ([6]; 110 μg/mL): 50.04%; cell migration number (Mean ± SD) ([6]; 120 μg/mL): 596.64 ± 50.46; inhibition rate of HUVEC migration ([6]; 120 μg/mL): 45.37%*; Cell nuclei count ([7]; 200 μg intravitreal for 1 week from day 7, vascular endothelial nuclei per slice): 8.539 ± 2.218 |
